This is an account of results in patent US6087355A, “Cephalosporin antibiotics” (Microcide Pharmaceuticals, Inc., priority 1996, dated 2000).

What is called ED50 is the dose that gives a 50% effect, or the effect in half of the subjects. High values mean weaker potency, low ones greater potency.

The test concerns S. aureus strain ATCC 13709 (methicillin-susceptible). In words: Murine model for lethal bacteremic peritonitis. The format is in vivo, female Swiss-Webster mice. As to conditions: Staphylococcus aureus, ATCC13709, sc, 72 h. The method, then: Groups of 5 female Swiss-Webster mice (Simonsen, Gilroy, Calif.) each are challenged by the intraperitoneal (IP) route with tenfold increments of a bacterial inoculum. This permits calculation of the mean lethal dose (LD50) and the LD100. For preliminary evaluation of a new antibiotic, mice are challenged IP with an LD100 titer of bacteria. In two equal doses administered at the time of bacterial challenge and 2 hours later, groups of 10 mice each are treated subcutaneously with two-fold increments of the test drug and an antibiotic of known efficacy in mice and humans (i.e., positive control). Mice are observed for 72 h. Those alive at 72 h are considered long term survivors. The total drug dose in mg/kg that protects 50% of mice in a group from death is termed the mean protective dose (PD50). PD50 s are similarly determined for several pathogens. The quantitative endpoints for the new drug are then compared with those obtained with reference antibiotics.
Six ten-fold dilutions of inoculum suspended in 0.5 mL of sterilized 7% hog gastric mucin (Sigma) are injected IP in groups of 5 mice each. A control group of 5 mice receive mucin alone. Mice are observed for 72 h. Those alive at 72 h are considered long term survivors. The mean lethal dose (LD50) and 100% lethal dose (LD100) are determined by the probit test.
For antibiotic efficacy studies, mice are challenged IP with bacterial titers that will afford an LD100 for the test strain. In two equal doses administered at the time of bacterial challenge and 2 hours later, groups of 10 mice each are treated by the subcutaneous route (SC) with twofold increments of the test antibiotic; another group is treated similarly with a reference antibiotic of known efficacy in animals and man. Drug doses can range from 0.01 to 512 mg/kg. If the drug is poorly soluble, Tween 20 or propylene glycol will be employed to solubilize the drug. Animals are observed for 72 h. The 50% protective dose (PD50) is calculated in mg/kg by the probit method. The PD50 is the same as the 50% effective dose (ED50) and the 50% curative dose (CD50). Samples of blood from the hearts of all animals that die and from half the mice that survive are cultured on brain-heart infusion agar. Animals that received a protective dosage of the test drug will be alive at 72 h, although they may appear moderately ill to very ill during the observation period. […] Most of these mice will die within 6 to 48 h. Those alive at 72 h will be considered long term survivors.
(Compound numbers correspond to those in MIC tables; data reported for challenge with methicillin-susceptible S. aureus strain ATCC 13709.)

Take `CN[C@H](CC(C)C)C(=O)N[C@H]1C(=O)N[C@@H](CC(N)=O)C(=O)N[C@H]2C(=O)N[C@H]3C(=O)N[C@H](C(=O)N[C@H](C(=O)O)c4cc(O)cc(O)c4-c4cc3ccc4O)[C@H](O)c3ccc(c(Cl)c3)Oc3cc2cc(c3O[C@@H]2O[C@H](CO)[C@@H](O)[C@H](O)[C@H]2O[C@H]2C[C@](C)(N)[C@H](O)[C@H](C)O2)Oc2ccc(cc2Cl)[C@H]1O` [Vancomycin, vancomycin, reference compound]: the ED50 amounted to 1.94 mg/kg. For the setting “read-out: Survivors”, the responders at 0.625 mg/kg was 20%, the responders at 1.25 mg/kg turned out to be 20%, the responders at 2.5 mg/kg was found to be 40% and the responders at 5 mg/kg is 100%. For the same compound, the responders at 10 mg/kg (read-out: Survivors) was found to be 100%.
